Measurements from patent US5173498A, “Substituted 3-thia- and 3-oxa-alkylflavones, a process for their preparation, the use thereof, medicaments based on these compounds and intermediates” (Hoechst Aktiengesellschaft, priority 1990, dated 1992).

Columns and labels:
LDL = test: Inhibition of Cu^2+-catalyzed LDL oxidation (increase in fluorescence at 430 nm); assay type: biochemical, pigs; details: Table I; 50% inhibition of fluorescence increase at 430 nm; 5 μM Cu^2+, 2 hours, 37° C., pH 7.4; LDL 0.1 mg protein/ml
Protocol: The method for testing the antioxidant action of the substances is based on the inhibition of the Cu^2+ -catalyzed oxidation of LDL by active compounds, the increase in fluorescence at 430 nm serving as a measure of the LDL oxidation (U.P. Steinbrecher, J. Biol. Chem. 262. 3603 (1987)).
Blood from freshly slaughtered pigs, which was collected in the presence of EDTA (1 mg/ml) and NaN3 (0.1 mg/ml) and then centrifuged for 20 min at 2,000×g and 4° C. in order to remove the cellular constituents, was used for isolation of the LDL. Stepwise ultracentrifuging of the plasma in NaCl/NaBr solutions having densities of d=1.019 and d=1.063 yielded the LDL fraction (R. J. Havel, H. A. Eder and J. H. Bragdon, J. Clin. Investig. 34, 1345 (1955)). In this method the samples were centrifuged in a 50.2 Ti fixed angle rotor (Beckman Instruments) in each case for 18 hours at 300,000×g and 17° C. In order to lower the EDTA concentration, the LDL fraction obtained in this way had to be subjected for 48 hours to two dialyses in 100 times the volume of a phosphate-buffered saline solution (160 mM NaCl, 10 mM NaH2 PO4) of pH 7.4 (U. P. Steinbrecher, J. L. Witztum, S. Parthasarathy and D. Steinberg, Arteriosclerosis 7, 135 (1987)).
For the oxidation tests, the LDL fraction, which was stored at 4° C., was diluted to 0.1 mg of protein/ml using the dialysis buffer of the abovementioned composition. 2.5 ml of this LDL solution were treated with 25 μl of ethanolic solution having various concentrations of the test substance and the samples were incubated in closed vessels under nitrogen for 1 hour at 37° C., in order initially to achieve an adequate incorporation of the substance in the LDL particles (L. R. McLean and K. A. Hagaman, Biochemistry 28, 321 (1989)). The maximum concentration of the test compounds was 10 μM in the test.
The oxidation of the LDL was effected by adding 12.5 μl of a 1 mM CuSO4 solution, i.e. 5 μM Cu^2+ in the test, and incubating for two hours at 37° C. in cell culture dishes open to the air. The controls contained 25 μl of pure ethanol. To determine the blank, analogously prepared LDL samples were treated with 12.5 μl of a solution of 1 mM CuSO4 and 40 mM EDTA and likewise incubated for 2 hours at 37° C.
After the end of the incubation, the fluorescence intensity emitted at 430 nm was determined in all samples using the excitation wavelength 365 nm (Perkin-Elmer type LS-3 spectrofluorimeter).
The IC50 values, i.e. those molar concentrations which, under the test conditions described, inhibit the increase in fluorescence by 50% (controls =100), were determined for comparison of the strength of action of the antioxidants. For this purpose the fluorescence measurement was carried out as a duplicate determination using, in each case, 5 to 6 different concentrations of the test substance. Plotting the percentage inhibition values on semi-logarithmic paper and graphic interpolation gave the corresponding IC50 (Table I). Vitamin E was used as comparison compound.

[1] = tested on: cholesterol biosynthesis in HEP-G2 cells; test: Suppression or inhibition of cholesterol biosynthesis in cell cultures of HEP-G2 cells; assay type: cell-based; details: Homo sapiens, HepG2, Table II, ^14C-cholesterol formed from ^14C-sodium acetate
Protocol: Monolayers of HEP-G2 cells in lipoprotein-free nutrient medium were preincubated with corresponding concentrations of the test substances for a certain time (e.g. 1 hour) and after addition of the labeled precursor, for example ^14 C-sodium acetate, the incubation was continued (e.g. 3 hours). After addition of an internal standard (^3 H-cholesterol), a portion of the cells was subjected to alkaline saponification. The lipids in the saponified cells were extracted with chloroform/methanol. After addition of carrier cholesterol, this lipid mixture was separated by preparative thin layer chromatography, the cholesterol band was isolated after rendering visible using iodine vapor and the amount of ^14 C-cholesterol formed from the ^14 C-precursor was determined by scintigraphy. Cell protein was determined in a aliquote portion of the cells, so that the amount of ^14 C-cholesterol formed per unit time per mg of cell protein can be calculated. By comparing this value with the amount of ^14 C-cholesterol which was formed per mg of cell protein and per unit time from a culture which was treated in the same way but free from test substance, the inhibitory effect of the particular test preparation on the cholesterol biosynthesis of HEP-G2 cell cultures was obtained. [drawing 12]
Using the method described above, for example, the following inhibitory values for the cholesterol biosynthesis (in HEP-G2 cells) were determined for the compounds according to the invention (the IC50 value in mole/liter is that concentration of the compound which effects a 50% inhibition of the cholesterol biosynthesis) (Tab. II).

Question: `CCCCCCCCCCCCSCc1c(-c2ccc(F)cc2)oc2cc(O)cc(O)c2c1=O` [Example 9b] was tested. Which IC50 (LDL) did it give?
Answer: The IC50 was 12000 nM.

Question: `CCCCCCCCCCCCCCCCCCSCc1c(-c2ccc(F)cc2)oc2cc(O)cc(O)c2c1=O` [Example 9d] was tested. Which IC50 (LDL) did it give?
Answer: The IC50 was 8000 nM.

Question: For `C/C(=C\CSCc1c(-c2ccc(F)cc2)oc2cc(O)cc(O)c2c1=O)CCC[C@H](C)CCC[C@H](C)CCCC(C)C` [Example 9e], which IC50 [1] is on record?
Answer: The IC50 was 10 nM.

Question: What about the IC50 (LDL) of the same compound?
Answer: Its IC50 is 330 nM.

Question: Which results are given for `C/C(=C\CSCc1c(-c2ccc(O)cc2)oc2cc(O)cc(O)c2c1=O)CCC[C@H](C)CCC[C@H](C)CCCC(C)C` [Example 9i]?
Answer: IC50 [1]: 9 nM; IC50 (LDL): 900 nM

Question: With `CC(C)=CCC/C(C)=C/CC/C(C)=C/CSCc1c(-c2ccc(F)cc2)oc2cc(O)cc(O)c2c1=O` [Example 9l] as the compound, how does the IC50 [1] read?
Answer: Its IC50 is 80 nM.

Question: Which IC50 [1] does the source give for `COc1ccc(-c2oc3cc(O)cc(O)c3c(=O)c2CSC/C=C(\C)CC/C=C(\C)CCC=C(C)C)cc1` [Example 9m] here?
Answer: Its IC50 is 80 nM.

Question: With Vitamin E [reference compound] as the compound, how does the IC50 (LDL) read?
Answer: Its IC50 is 4800 nM.
